Each structure is given as a SMILES string.

This note sets out measurements from ChEMBL document CHEMBL3045001, “Synthesis and evaluation of analgesic, anti-inflammatory, and anticancer activities of new pyrazole-3(5)-carboxylic acid derivatives” (Med Chem Res, 2013).

In series [1] the test system is Mus musculus. As to the kind of experiment: Analgesic activity in Mus musculus Swiss albino (mouse) assessed as inhibition of p-benzoquinone-induced abdominal writhing at 100 mg/kg, sc administered 30 min prior to PBQ injection measured after 5 min for 15 min. It is filed as functional, Abdomen. More on the design: scale not given: the % may be the effect or the level left. The following applies: route subcutaneous. A general note: An intraperitoneal irritant provokes the stretching counted in writhing tests.

For series [2], the system named is HeLa. The series is described as follows: Anticancer activity against Homo sapiens (human) HeLa cells assessed as cell viability at 50 uM after 24 hr by MTT assay (reference value: 100 +/-4.13%). It is filed as functional. Conditions: read-out: Activity. On the technique in general: Tetrazolium assays rely on reduction of a dye to a coloured formazan, in cell work by metabolically active cells.

Series [3] concerns MDA-MB-231. The series is described as follows: Anticancer activity against Homo sapiens (human) estrogen-independent MDA-MB-231 cells assessed as cell viability at 50 uM after 48 hr by MTT assay (reference value: 100 +/-3.71%). The following applies: MDA-MB-231, 48 h, read-out: Activity. Format: functional.
Series [4] is filed under the species Mus musculus. As to the kind of experiment: Acute toxicity against Mus musculus Swiss albino (mouse) assessed as morbidity after 48 hr. It is filed as organism-based. The following applies: in vivo.
The species entered for series [5] is Mus musculus. As to the kind of experiment: Acute toxicity against Mus musculus Swiss albino (mouse) assessed as mortality after 48 hr. It is filed as organism-based. Conditions: in vivo.
In series [6] the test system is HL-60. The series is described as follows: Anticancer activity against Homo sapiens (human) HL60 cells assessed as cell viability at 50 uM after 48 hr by MTT assay (reference value: 100 +/-8.41%). Conditions: HL-60, 48 h, read-out: Activity. Format: functional.
The test system of series [7] is HL-60. As to the kind of experiment: Anticancer activity against Homo sapiens (human) HL60 cells assessed as cell viability at 50 uM after 24 hr by MTT assay (reference value: 100 +/-3.55%). It is filed as functional. Conditions: HL-60, 24 h, read-out: Activity.
In series [8] the test system is MCF7. The series is described as follows: Anticancer activity against Homo sapiens (human) MCF7 cells assessed as cell viability at 50 uM after 48 hr by MTT assay (100 +/-5.08%). The following applies: MCF7, 48 h, read-out: Activity. Format: functional.
In series [9] the test system is MCF7. As to the kind of experiment: Anticancer activity against Homo sapiens (human) MCF7 cells assessed as cell viability at 50 uM after 24 hr by MTT assay (reference value: 100 +/-2.74%). Format: functional. Conditions: MCF7, 24 h, read-out: Activity.
The subject of series [10] is Raji. The series is described as follows: Anticancer activity against Homo sapiens (human) Raji cells assessed as cell viability at 50 uM after 48 hr by MTT assay (reference value: 100 +/-4.26%). It is filed as functional. The following applies: read-out: Activity.
In series [11] the test system is Raji. As to the kind of experiment: Anticancer activity against Homo sapiens (human) Raji cells assessed as cell viability at 50 uM after 24 hr by MTT assay (reference value: 100 +/-5.02%). It is filed as functional. The following applies: read-out: Activity.
For series [12], the system named is HeLa. As to the kind of experiment: Anticancer activity against Homo sapiens (human) HeLa cells assessed as cell viability at 50 uM after 48 hr by MTT assay (reference value: 100 +/-3.8%). Format: functional. Conditions: read-out: Activity.
The subject of series [13] is MDA-MB-231. As to the kind of experiment: Anticancer activity against Homo sapiens (human) estrogen-independent MDA-MB-231 cells assessed as cell viability at 50 uM after 24 hr by MTT assay (reference value: 100 +/-7.08%). Format: functional. Conditions: MDA-MB-231, 24 h, read-out: Activity.
Series [14] deals with Mus musculus. The series is described as follows: Anti-inflammatory activity in carrageenan-induced Mus musculus Swiss albino (mouse) paw edema model assessed as paw swelling at 100 mg/kg, sc administered 30 min prior to carrageenan injection measured after 270 min (rvb = 75.0 +/-3.0 x10'-2 mm). It is filed as functional. The following applies: route subcutaneous.
Series [15] deals with Mus musculus. The series is described as follows: Anti-inflammatory activity in carrageenan-induced Mus musculus Swiss albino (mouse) paw edema model assessed as inhibition of paw edema at 100 mg/kg, sc administered 30 min prior to carrageenan injection measured after 270 min. Format: functional. Conditions: route subcutaneous.
In series [16] the test system is Mus musculus. The series is described as follows: Anti-inflammatory activity in carrageenan-induced Mus musculus Swiss albino (mouse) paw edema model assessed as inhibition of paw edema at 100 mg/kg, sc administered 30 min prior to carrageenan injection measured after 180 min. It is filed as functional. The following applies: route subcutaneous.
Series [17] relates to Mus musculus. As to the kind of experiment: Anti-inflammatory activity in carrageenan-induced Mus musculus Swiss albino (mouse) paw edema model assessed as paw swelling at 100 mg/kg, sc administered 30 min prior to carrageenan injection measured after 360 min (reference value: 77.0 +/-3.0 x10'-2 mm). Format: functional. The following applies: route subcutaneous.
Series [18] concerns Mus musculus. The series is described as follows: Anti-inflammatory activity in carrageenan-induced Mus musculus Swiss albino (mouse) paw edema model assessed as paw swelling at 100 mg/kg, sc administered 30 min prior to carrageenan injection measured after 180 min (reference value: 51.0 +/-3.0 x10'-2 mm). Conditions: route subcutaneous. Format: functional.
Series [19] relates to Mus musculus. The series is described as follows: Anti-inflammatory activity in carrageenan-induced Mus musculus Swiss albino (mouse) paw edema model assessed as paw swelling at 100 mg/kg, sc administered 30 min prior to carrageenan injection measured after 90 min (reference value: 38.0 +/-2.0 x10'-2 mm). Format: functional. The following applies: route subcutaneous.
The test system of series [20] is Mus musculus. The series is described as follows: Anti-inflammatory activity in carrageenan-induced Mus musculus Swiss albino (mouse) paw edema model assessed as inhibition of paw edema at 100 mg/kg, sc administered 30 min prior to carrageenan injection measured after 360 min. Format: functional. Conditions: route subcutaneous.

On to `CC(=O)Oc1ccccc1C(=O)O` [ASPIRIN], for which the Activity in the series on Mus musculus [1] amounted to 68.9%.

Turning to `CCCCCCCOc1ccc(OC(=O)c2cc(-c3ccc(C)cc3)nn2Cc2ccccc2)cc1`, the viability at 50 µM in the series with HeLa [2] stood at 109%; with MDA-MB-231 [3], 63.2%; in the series on HL-60 [6], 108%; in the series on HL-60 [7], 118%; with MCF7 [8], 97.6%; with MCF7 [9], 100%. For the same molecule, the viability at 50 µM worked out at 84.3% in the series with Raji [10], 76.3% with Raji [11], 85.3% with HeLa [12] and 115% in the series on MDA-MB-231 [13]. The Activity entry is on record as “Non-toxic” in the series listed under Mus musculus [4]; “Non-toxic” in the series filed under Mus musculus [5]; 68 ×10⁻² mm in the series on Mus musculus [14]; 80 ×10⁻² mm in the series on Mus musculus [17]; 47 ×10⁻² mm with Mus musculus [18]; 42.5 ×10⁻² mm in the series with Mus musculus [19]. Besides, the results for the inhibition in vivo at 100 mg/kg in the series with Mus musculus [15] and in the series on Mus musculus [16] were 10% and 9%, respectively.

As for `Cc1ccc(-c2cc(C(=O)Oc3ccc(Oc4ccc(C(F)(F)F)cc4)cc3)n(Cc3ccccc3)n2)cc1`, the viability at 50 µM was found to be 89.1% in the series with HeLa [2]; 50.3% in the series with MDA-MB-231 [3]; 86.3% in the series on HL-60 [6]; 114% with HL-60 [7]; 107% in the series on MCF7 [8]; 63.6% in the series with MCF7 [9]. Also, the viability at 50 µM in the series with Raji [10] is 121%; in the series with Raji [11] it was 111%; in the series on HeLa [12] it was 77.4%; in the series with MDA-MB-231 [13], 75.5%. Moreover, the Activity result in the series listed under Mus musculus [4] was “Non-toxic”; in the series listed under Mus musculus [5] it was “Non-toxic”; in the series on Mus musculus [14] it was 58 ×10⁻² mm; in the series with Mus musculus [17], 66 ×10⁻² mm; in the series with Mus musculus [18], 43 ×10⁻² mm; with Mus musculus [19], 40 ×10⁻² mm. In addition, in the series with Mus musculus [1], the Activity worked out at 56.9%. Further, the values for the inhibition in vivo at 100 mg/kg with Mus musculus [20], in the series on Mus musculus [15] and in the series with Mus musculus [16] were 14.1%, 22.2% and 17%, respectively.

For the molecule `CCOC(=O)C1CCN(C(=O)c2cc(-c3ccc(C)cc3)n(Cc3ccccc3)n2)CC1`, the viability at 50 µM with HeLa [2] was determined as 66.4%; in the series on MDA-MB-231 [3] it was 71.8%; with HL-60 [6], 78.8%; in the series with HL-60 [7], 88.2%; in the series on MCF7 [8], 94.5%; in the series with MCF7 [9], 77.8%. Besides, the viability at 50 µM with Raji [10] was 41.6%; in the series on Raji [11], 56.5%; in the series with HeLa [12], 47.1%; with MDA-MB-231 [13], 121%. The Activity entry in the series listed under Mus musculus [4] was “Non-toxic”; in the series listed under Mus musculus [5], “Non-toxic”; with Mus musculus [14], 32 ×10⁻² mm; in the series on Mus musculus [17], 31 ×10⁻² mm; with Mus musculus [18], 44 ×10⁻² mm; with Mus musculus [19], 40 ×10⁻² mm. Besides, the Activity with Mus musculus [1] was determined as 83.2%. For the same molecule, the inhibition in vivo (as a rule, how much of the control response was suppressed) at 100 mg/kg stood at 59.8% with Mus musculus [20], 57.8% in the series with Mus musculus [15] and 13.9% with Mus musculus [16].

`Cc1ccc(-c2cc(C(=O)N3CCN(Cc4ccc(C(C)C)cc4)CC3)n(Cc3ccccc3)n2)cc1`: the viability at 50 µM stood at 84.8% in the series with HeLa [2]; 51% in the series on MDA-MB-231 [3]; 104% in the series on HL-60 [6]; 128% with HL-60 [7]; 66.6% in the series with MCF7 [8]; 94.4% with MCF7 [9]. Besides, the viability at 50 µM in the series on Raji [10] turned out to be 109%; in the series with Raji [11] it was 101%; in the series with HeLa [12], 60.6%; in the series on MDA-MB-231 [13], 74%. For the same molecule, the Activity result was “Non-toxic” in the series listed under Mus musculus [4]; “Non-toxic” in the series filed under Mus musculus [5]; 55 ×10⁻² mm with Mus musculus [14]; 53 ×10⁻² mm in the series on Mus musculus [17]; 49 ×10⁻² mm with Mus musculus [18]; 44.2 ×10⁻² mm in the series with Mus musculus [19]. Moreover, the inhibition in vivo at 100 mg/kg came to 30.4% in the series with Mus musculus [20], 26.7% in the series on Mus musculus [15] and 4.1% in the series on Mus musculus [16].
